Test results as given in the supplement of paper PMC10011410.
± gives the standard deviation of the averaged measurements.

What was measured:
U-2 OS [1] = experiment: cell viability (CellTiter-Glo) relative to DMSO (% of control); higher = more viable; conditions: 24 h
Protocol: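 Cell viability of U-2 OS cells by CellTiter-Glo after 24 h compound treatment at 5, 10 and 20 uM (some at 40 and 80 uM), measured in parallel with the glutathione assay, as percent of DMSO control. Five technical replicate plates, averaged.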

U-2 OS [2] = experiment: AUC of culture confluence over time (live-cell imaging) (AUC (confluence % x time)); higher = more confluent culture (less growth inhibition)
Outline: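 Reported values are areas under curves of confluence against time, recorded by live-cell imaging of U-2 OS cells. Cells in F-12K medium with 10% FBS, seeded at 750 per well in 384-well plates, were treated by pin tool 24 h later, most compounds at 20, 10 and 5 μM with 0.2% DMSO. Imaging at 37 °C took place every 4 h for up to 60 h.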

U-2 OS [3] = experiment: intracellular GSH:GSSG ratio (calculated); higher = more reduced glutathione pool; conditions: 24 h
Protocol: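 Intracellular glutathione in U-2 OS cells after 24 h compound treatment at 5, 10 and 20 uM (some at 40 and 80 uM). Total glutathione and GSSG were measured with the GSH/GSSG-Glo kit, and the GSH:GSSG ratio was calculated. Mean of five technical replicate plates.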

U-2 OS [4] = experiment: relative cell count vs DMSO (cell painting) (fraction of DMSO control); higher = more cells remaining (less cytotoxic); conditions: 24 h
Outline: (§1)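 Using 384-well plates holding about 1,500 U-2 OS cells per well, treatment was applied by pin tool for 24 h at 37 °C, generally at six 2-fold concentrations ranging from 20 μM to 625 nM. Staining with MitoTracker, concanavalin A, phalloidin, wheat germ agglutinin, Hoechst and SYTO 14 preceded Opera Phenix imaging and CellProfiler feature extraction against DMSO cells on the same plate. Activity score and cell count are both referenced to DMSO wells, the former as a Mahalanobis distance. Four replicate plates were averaged for every value.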

U-2 OS [5] = experiment: cell painting activity score (Mahalanobis distance from DMSO wells); higher = stronger morphological phenotype; conditions: 24 h
Outline: as §1

U-2 OS [6] = experiment: total intracellular glutathione (GSH + GSSG) relative to DMSO (% of control); higher = more glutathione; conditions: 24 h
Protocol: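 Total intracellular glutathione (GSH + GSSG) in U-2 OS cells by GSH/GSSG-Glo after 24 h compound treatment at 5, 10 and 20 uM (some at 40 and 80 uM), as percent of DMSO control. Five technical replicate plates, averaged.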

| SMILES | cell viability (U-2 OS [1]; 5 µM) | cell viability (U-2 OS [1]; 10 µM) | cell viability (U-2 OS [1]; 20 µM) | AUC of culture confluence over time (U-2 OS [2]; 5 µM) | AUC of culture confluence over time (U-2 OS [2]; 10 µM) | AUC of culture confluence over time (U-2 OS [2]; 20 µM) | intracellular GSH:GSSG ratio (U-2 OS [3]; 5 µM) | intracellular GSH:GSSG ratio (U-2 OS [3]; 10 µM) | intracellular GSH:GSSG ratio (U-2 OS [3]; 20 µM) | relative cell count (U-2 OS [4]; 0.625 µM) | relative cell count (U-2 OS [4]; 1.25 µM) | relative cell count (U-2 OS [4]; 2.5 µM) | relative cell count (U-2 OS [4]; 5 µM) | relative cell count (U-2 OS [4]; 10 µM) | relative cell count (U-2 OS [4]; 20 µM) | cell painting activity score (U-2 OS [5]; 0.625 µM) | cell painting activity score (U-2 OS [5]; 1.25 µM) | cell painting activity score (U-2 OS [5]; 2.5 µM) | cell painting activity score (U-2 OS [5]; 5 µM) | cell painting activity score (U-2 OS [5]; 10 µM) | cell painting activity score (U-2 OS [5]; 20 µM) | total intracellular glutathione (U-2 OS [6]; 5 µM) | total intracellular glutathione (U-2 OS [6]; 10 µM) | total intracellular glutathione (U-2 OS [6]; 20 µM) | cell viability (U-2 OS [1]; 40 µM) | cell viability (U-2 OS [1]; 80 µM) | intracellular GSH:GSSG ratio (U-2 OS [3]; 40 µM) | intracellular GSH:GSSG ratio (U-2 OS [3]; 80 µM) | relative cell count (U-2 OS [4]; 40 µM) | relative cell count (U-2 OS [4]; 80 µM) | cell painting activity score (U-2 OS [5]; 40 µM) | cell painting activity score (U-2 OS [5]; 80 µM) | total intracellular glutathione (U-2 OS [6]; 40 µM) | total intracellular glutathione (U-2 OS [6]; 80 µM) |
| --- | --- | --- | --- | --- | --- | --- | --- | --- | --- | --- | --- | --- | --- | --- | --- | --- | --- | --- | --- | --- | --- | --- | --- | --- | --- | --- | --- | --- | --- | --- | --- | --- | --- | --- |
| C=CC(=O)N1CCC[C@@H](n2nc(-c3ccc(Oc4ccccc4)cc3)c3c(N)ncnc32)C1 | 87.8 ± 1.4 | 87.6 ± 4 | 82 ± 3.9 | 37.7 | 27.5 | 20.6 | 21.3 | 20 | 13.5 | 1.09 | 1.02 | 1.09 | 1.11 | 1.03 | 1.03 | 5.26 | 6.98 | 6.19 | 8.03 | 8.01 | 12.2 | 89.1 ± 3.4 | 94.8 ± 4.3 | 85.1 ± 9.8 |  |  |  |  |  |  |  |  |  |  |
| COc1ccc(/C(Cl)=C(/C=O)c2ccc(OC)cc2)cc1 | 102 ± 5.1 | 87.1 ± 4.2 | 49.8 ± 6 |  |  |  | 22.2 | 14.8 | 3.39 | 0.912 | 0.934 | 0.941 | 0.937 | 0.849 | 0.395 | 6.48 | 7.76 | 8.89 | 10.2 | 11.7 | 14.5 | 115 ± 4.6 | 108 ± 6.8 | 51.8 ± 4.8 | 44.2 ± 3.5 | 6.75 ± 0.88 | 4.6 | 1.06 | 0.442 | 0.0713 | 16.2 | 34 | 49.4 ± 2.6 | 8.12 ± 0.4 |
| COC(=O)c1ccc([C@H]2c3[nH]c4ccccc4c3C[C@H](C(=O)OC)N2C(=O)CCl)cc1 | 69.6 ± 4.1 | 49.1 ± 4.9 | 6.2 ± 1.6 |  |  |  | 3.83 | 3.98 | 1.09 | 0.876 | 0.867 | 0.818 | 0.68 | 0.524 | 0.186 | 10.3 | 10.7 | 11.1 | 10.8 | 10 | 17.9 | 93.1 ± 5.2 | 75.3 ± 6.4 | 10.7 ± 1.2 |  |  |  |  |  |  |  |  |  |  |
| CN(C)C/C=C/C(=O)Nc1ccc(C(=O)Nc2cccc(Nc3ncc(Cl)c(-c4c[nH]c5ccccc45)n3)c2)cc1 | 34.1 ± 4.7 | 31 ± 4.3 | 10.8 ± 2.7 |  |  |  | 2.92 | 3.73 | 6.62 | 0.429 | 0.45 | 0.407 | 0.251 | 0.152 | 0.164 | 22.6 | 23.3 | 23.3 | 19.2 | 18.5 | 29.4 | 26.7 ± 2.8 | 20.6 ± 2.5 | 11.6 ± 2.1 |  |  |  |  |  |  |  |  |  |  |
| COc1cc(/C=C/C(=O)CC(=O)/C=C/c2ccc(O)c(OC)c2)ccc1O | 101 ± 7.1 | 90 ± 6.6 | 70.2 ± 3.2 |  |  |  | 16.9 | 10.3 | 6.3 | 0.919 | 0.894 | 0.876 | 0.892 | 0.772 | 0.482 | 3.83 | 3.58 | 4.65 | 6.94 | 9.69 | 10.7 | 112 ± 20 | 116 ± 3.4 | 100 ± 5.8 | 40.9 ± 2.8 | 36.2 ± 3.8 | 4.46 | 0.7 |  |  |  |  | 44.2 ± 2.1 | 41.5 ± 3.5 |
| C=C1C(=O)O[C@H](CCC)[C@H]1C(=O)O | 91.7 ± 2.8 | 98.6 ± 6 | 95.5 ± 5.5 |  |  |  | 21.5 | 22.5 | 22.9 | 1.06 | 1.04 | 1.06 | 0.973 | 1.07 | 1.01 | 3.78 | 4.58 | 3.59 | 4.83 | 3.69 | 5.28 | 95.1 ± 3.1 | 90.6 ± 6.3 | 94.2 ± 5.9 | 105 ± 3.7 | 105 ± 7.9 | 25.2 | 20.4 |  |  |  |  | 97.6 ± 5.4 | 100 ± 4 |
| C[C@@H]1CC[C@@]2(OC1)O[C@H]1[C@@H](O)[C@H]3[C@@H]4CC[C@H]5C[C@@H](O[C@@H]6O[C@H](CO)[C@H](O[C@@H]7O[C@H](CO)[C@@H](O)[C@H](O[C@@H]8OC[C@@H](O)[C@H](O)[C@H]8O)[C@H]7O[C@@H]7O[C@H](CO)[C@H](O)[C@H](O[C@@H]8O[C@H](CO)[C@@H](O)[C@H](O)[C@H]8O)[C@H]7O)[C@H](O)[C@H]6O)[C@H](O)C[C@]5(C)[C@H]4CC[C@]3(C)[C@H]1[C@@H]2C | 64.5 ± 5.7 | 36.8 ± 12 | 8.23 ± 3.5 |  |  |  | 13.7 | 20.4 | 11.7 | 0.85 | 0.742 | 0.753 | 0.19 | 0.117 | 0.0498 | 7.99 | 7.32 | 7.71 | 8.51 | 13.6 | 28.6 | 76.2 ± 7.3 | 45.1 ± 18 | 21 ± 4.2 |  |  |  |  |  |  |  |  |  |  |
